{
  "source": "patent US9574239B2",
  "about": "“MicroRNA signatures in human ovarian cancer” (The Ohio State University Research Foundation, priority 2007, dated 2017)",
  "format_in_all_cases": "cell-based, human",
  "key": {"OVCAR3 cells [1]": {"tested_on": "OVCAR3 cells", "test": "Northern blot of miR-21 in OVCAR3 cells after demethylating treatment", "settings": "OVCAR3, before vs after treatment; FIG. 5D", "protocol": "Northern blot analysis was performed as previously described. RNA samples (10 μg each) were run on 15% Polyacrylamide, 7M Urea Criterion pre-casted gels (Bio-Rad, Hercules, Calif.) and transferred onto Hybond-N+ membranes (Amersham, Piscataway, N.J.). The hybridization was performed at 370 C in ULTRAhyb-Oligo hybrization buffer (Ambion, Austin, Tex.) for 16 hours. Membranes were washed at 370 C, twice with 2×SSPE and 0.5% SDS. 5S RNA or EtBr gel staining were used to normalize 200 ng of each probe was end labeled with 100 μCi [gamma-32P]-ATP using the polynucleotide kinase (Roche). Blots were stripped in boiling 0.1% SDS for 10 minutes before re-hybridization. OVCAR3 cells were seeded at low density 48 h before treatment with 10 μM 5′aza-2′deoxycytidine (5′-AZA, Sigma). After 24 h of treatment, cells were collected and total RNA was isolated using Trizol reagent (Invitrogen)."}, "OVCAR3 cells [2]": {"tested_on": "OVCAR3 cells", "test": "miR expression by microarray profiling of OVCAR3 cells before and after demethylating treatment", "settings": "10 μM, 24 h", "experimental": "Total RNA isolation was performed with Trizol (Invitrogen, Carlsbad, Calif.) according to the manufacturer's instructions. RNA labeling and hybridization on microRNA microarray chips were performed as previously described (28) using 5 μg of total RNA from each sample. Hybridization was carried out on our microRNA microarray (Ohio State Comprehensive Cancer Center, version 2.0), which contains probes for 460 mature microRNAs spotted in quadruplicate (235 homo sapiens, 222 mus musculus, and three Arabidopsis thaliana) with annotated active sites. Often, more than one probe set exists for a given mature microRNA. Additionally, there are quadruplicate probes corresponding to most precursor microRNAs. Hybridization signals were detected with Streptavidin-Alexa647 conjugate and scanned images (Axon 4000B) were quantified using the Genepix 6.0 software (Axon Instruments, Sunnyvale, Calif.).\nMicroarray images were analyzed by using GENEPIX PRO. Average values of the replicate spots of each miRNA were background subtracted, normalized, and subjected to further analysis. We performed a global median normalization of Ovary microarray data by using BRB ArrayTools developed by Richard Simon & Amy Peng Lam (29). Absent calls were thresholded to 4.5 before subsequent statistical analysis. This level is the average minimum intensity level detected in the experiments. miRNA nomenclature was according to the Genome Browser (genome.ucsc.edu) and the miRNA database at Sanger Center (microrna.sanger.ac.uk/); in case of discrepancies the miRNA database was followed. Differentially expressed miRNAs were identified by using the t test procedure within significance analysis of microarrays (SAM), a method developed at Stanford University Labs based on recent paper of Tusher, Tibshirani and Chu (30).\nOVCAR3 cells were seeded at low density 48 h before treatment with 10 μM 5′aza-2′deoxycytidine (5′-AZA, Sigma). After 24 h of treatment, cells were collected and total RNA was isolated using Trizol reagent (Invitrogen). 3 replicates for both untreated cells and AZA-treated cells were used to evaluate the miR expression by Microarray profiling. Differentially expressed microRNAs were identified by using univariate two-classes T-test with random variance model."}, "OVCAR3 cells [3]": {"tested_on": "OVCAR3 cells", "test": "Real-Time PCR of miR expression levels in OVCAR3 cells after demethylating treatment", "settings": "OVCAR3, before vs after treatment; FIG. 5C", "experimental": "Relative expression was calculated using the comparative Ct method."}, "[4]": {"settings": "OVCAR3, before vs after treatment, p<0.001"}},
  "data": [
    {"molecule": "Nc1ncn([C@H]2C[C@H](O)[C@@H](CO)O2)c(=O)n1", "note": "[5-aza-2′-deoxycytidine]", "values": [
      {"measurement": "miR-21 expression (Northern Blot, normalized with EtBr gel staining)", "setting": "OVCAR3 cells [1]", "result": "up-modulation"},
      {"measurement": "expression of miR-21, miR-203, miR-146b, miR-205, miR-30-5p and miR-30c", "setting": "OVCAR3 cells [2]; OVCAR3, before vs after treatment", "result": "most significant induced upon treatment"},
      {"measurement": "human microRNAs differentially expressed (number)", "setting": "OVCAR3 cells [2]; [4]", "result": 11},
      {"measurement": "human microRNAs down-modulated (number)", "setting": "OVCAR3 cells [2]; [4]", "result": 2},
      {"measurement": "human microRNAs up-modulated (number)", "setting": "OVCAR3 cells [2]; [4]", "result": 9},
      {"measurement": "levels of miR-21, miR-203 and miR-205 after demethylating treatment", "setting": "OVCAR3 cells [2]; OVCAR3 cells", "result": "significantly increased"},
      {"measurement": "expression levels of the 5 most significantly induced miRs (Real-Time PCR)", "setting": "OVCAR3 cells [3]", "result": "up-modulation"}
    ]}
  ]
}
